Data on six compounds can be found in PubChem BioAssay (NCI).

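A five-concentration, 48-hour dose response in 96-well plates underlies each endpoint, interpolated linearly between surrounding concentrations. Here, GI50 denotes the concentration required for 50% inhibition of growth. TGI denotes the concentration required for complete inhibition of growth.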

Among the test systems are SR leukemia; UACC-62 melanoma; NCI/ADR-RES ovarian; SW-620 colon; UO-31 renal; MOLT-4 leukemia; HS 578T breast; MALME-3M melanoma; HOP-62 NSCLC; HCC-2998 colon.
What all share (experiment): NCI-60 cell line screen, 48 h

`O=C(CSSCC(=O)c1ccc(Cl)cc1)c1ccc(Cl)cc1`: the GI50 in the test with SR leukemia is 2.82 µM; in the test on UACC-62 melanoma, 3.1 µM; with NCI/ADR-RES ovarian it was 2.69 µM; in the test with SW-620 colon, 4.13 µM; in the test on UO-31 renal, 3.48 µM; with MOLT-4 leukemia it was 3.28 µM. The GI50 in the test with HS 578T breast is 7.51 µM; in the test on MALME-3M melanoma, 3.19 µM; in the test on HOP-62 NSCLC it was 5.03 µM; with HCC-2998 colon it was 8.56 µM. Besides, the TGI is > 100 µM in the test with SR leukemia; 14.5 µM with UACC-62 melanoma; 13.1 µM in the test on NCI/ADR-RES ovarian; 23.6 µM with SW-620 colon; 17.5 µM in the test with UO-31 renal; > 100 µM with MOLT-4 leukemia. Also, the TGI in the test with HS 578T breast is > 100 µM; in the test on MALME-3M melanoma it was 17 µM; in the test on HOP-62 NSCLC, 21.7 µM; with HCC-2998 colon, 22.2 µM.

With `Cc1cccc(CNc2c3ccccc3nc3ccccc23)c1`, the GI50 with SR leukemia was 1.94 µM; in the test on UACC-62 melanoma, 1.61 µM; with NCI/ADR-RES ovarian, 1.85 µM; in the test on SW-620 colon, 1.74 µM; with UO-31 renal, 1.19 µM; in the test on MOLT-4 leukemia it was 3.06 µM. For the same compound, the GI50 was 2.2 µM in the test with HS 578T breast, 1.66 µM in the test on MALME-3M melanoma, 3.14 µM in the test with HOP-62 NSCLC and 1.55 µM in the test with HCC-2998 colon. Moreover, the TGI with SR leukemia turned out to be 8.62 µM; with UACC-62 melanoma it was 3.48 µM; in the test with NCI/ADR-RES ovarian it was 5.97 µM; in the test with SW-620 colon, 5.63 µM; with UO-31 renal, 2.62 µM; in the test on MOLT-4 leukemia it was 11.3 µM. Besides, the TGI with HS 578T breast worked out at 6.6 µM; in the test on MALME-3M melanoma it was 3.17 µM; in the test with HOP-62 NSCLC it was 16.1 µM; in the test with HCC-2998 colon, 3.4 µM.

For `CCN(Cc1cc(Cl)cc(C)c1O)Cc1c(O)ccc2ccccc12`, the TGI with SR leukemia amounted to 52.5 µM; in the test on UACC-62 melanoma, 31.4 µM; in the test on NCI/ADR-RES ovarian it was 32 µM; in the test with SW-620 colon it was 69.7 µM; with UO-31 renal, 30.4 µM; in the test on MOLT-4 leukemia, 28 µM. For the same compound, the TGI in the test on HS 578T breast was 36.5 µM; in the test with MALME-3M melanoma it was 29.8 µM; with HOP-62 NSCLC, 26.4 µM; with HCC-2998 colon, 32.7 µM.

In the case of `O=C(O)CCCN1C(=O)/C(=C/C(Cl)=C/c2ccccc2)SC1=S`, the GI50 with SR leukemia is 0.719 µM; with UACC-62 melanoma, 1.47 µM; with NCI/ADR-RES ovarian, 2.39 µM; in the test on SW-620 colon it was 1.3 µM; in the test on UO-31 renal, 1.07 µM; in the test on MOLT-4 leukemia, 0.591 µM. In addition, the GI50 in the test on HS 578T breast was 2.73 µM; in the test on MALME-3M melanoma it was 2.09 µM; in the test with HOP-62 NSCLC, 2.94 µM; in the test with HCC-2998 colon, 1.83 µM. For the same compound, the TGI was found to be 15.3 µM with SR leukemia; 3.62 µM in the test with UACC-62 melanoma; 9.35 µM in the test with NCI/ADR-RES ovarian; 3.86 µM in the test on SW-620 colon; 2.48 µM in the test on UO-31 renal; 11.9 µM in the test on MOLT-4 leukemia. Further, the TGI in the test on HS 578T breast was found to be 10.6 µM; with MALME-3M melanoma, 5.24 µM; in the test on HOP-62 NSCLC, 10.5 µM; with HCC-2998 colon, 3.41 µM.

As for `O=C(CCN1CCCC1)Nc1ccc2c(Nc3ccc(F)cc3)c3ccccc3nc2c1`, the GI50 in the test on SR leukemia was 0.174 µM; in the test on UACC-62 melanoma, 1.55 µM; with NCI/ADR-RES ovarian, 2.11 µM; with SW-620 colon it was 0.64 µM; in the test with UO-31 renal, 1.16 µM; in the test with MOLT-4 leukemia it was 0.133 µM. The GI50 in the test on HS 578T breast is 1.74 µM; in the test with MALME-3M melanoma it was 1.57 µM; in the test with HOP-62 NSCLC, 0.864 µM; in the test on HCC-2998 colon, 1.16 µM. Moreover, the TGI in the test with SR leukemia was determined as 2.3 µM; in the test on UACC-62 melanoma, 3.1 µM; with NCI/ADR-RES ovarian, 7.4 µM; with SW-620 colon it was 2.29 µM; in the test on UO-31 renal, 2.55 µM; with MOLT-4 leukemia it was 3.02 µM. The TGI came to 4.54 µM in the test on HS 578T breast, 2.99 µM in the test with MALME-3M melanoma, 3.7 µM in the test on HOP-62 NSCLC and 2.52 µM with HCC-2998 colon.

For `COc1ccc(C2=C(c3ccc(OC)cc3)C(=O)OC2)cc1`, the GI50 is 0.238 µM in the test with SR leukemia; 1.3 µM in the test with UACC-62 melanoma; 2.89 µM in the test with NCI/ADR-RES ovarian; 0.361 µM in the test on SW-620 colon; 3.18 µM in the test with UO-31 renal; 1.29 µM in the test on MOLT-4 leukemia. The GI50 is 0.604 µM in the test on HS 578T breast, 3.91 µM in the test with MALME-3M melanoma, 2.25 µM with HOP-62 NSCLC and 0.264 µM with HCC-2998 colon. Besides, the TGI in the test with SR leukemia was 0.663 µM; in the test with UACC-62 melanoma it was 20.6 µM; in the test with NCI/ADR-RES ovarian it was 28.4 µM; in the test with SW-620 colon, > 42.5 µM; in the test with UO-31 renal it was > 43.5 µM; in the test with MOLT-4 leukemia, 23.8 µM. For the same compound, the TGI with HS 578T breast was 3.93 µM; with MALME-3M melanoma it was 35.4 µM; with HOP-62 NSCLC, 24.6 µM; with HCC-2998 colon, 14.5 µM.
